Measurements reported in patent publication US7868204B2, “Inhibitors of histone deacetylase” (MethylGene Inc., priority 2001, dated 2011).

Legend:
[1] = target: T1, cloned recombinant human HDAC-1 (Homo sapiens, UniProt Q13547); assay: Human HDAC-1 enzyme inhibition, Assay 1 ([3H]-acetylated histone substrate, scintillation counting); assay type: biochemical; settings: Table 5F; read-out: Human HDAC-1 IC50
T1 construct: made in house; host or cells: Baculovirus insect cell expression system
Method in brief: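 Activity read as [3H]-acetic acid liberated from labeled substrate, ethyl acetate-extracted and scintillation-counted. Compounds preincubated 30 min at 4° C. with baculovirus-expressed, purified human HDAC-1. Dose-response curves give IC50 as concentration producing fifty percent of maximal inhibition.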

HCT116 cells = assay: MTT assay; assay type: cell-based; settings: Homo sapiens, HCT-116, 72 h, Table 5F; HCT116 cells, 72 hours
Method in brief: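 Read-out: MTT (0.5 mg/ml final, 4 h) after solubilization in 50% DMF/20% SDS, pH 4.7, with OD translated into cell number via the line's growth curve. Compound treatment lasted 72 h at 37 °C in 5% CO2, starting a day after plating.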

[2] = test system: acetylated histone H-4 in T24 human bladder cancer cells; assay: Histone H4 acetylation in whole cells by immunoblots; assay type: cell-based; settings: T-24, Table 5F, 16 h, read-out: H4 Ac (T24) EC50
Method in brief: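 Acetylated histone H4 was quantified by densitometry of ECL-developed immunoblots, probed with a polyclonal antibody, of […] total histone from T24 cultures exposed 16 h to HDAC inhibitors.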

T1 sequence (Q13547 whole entry): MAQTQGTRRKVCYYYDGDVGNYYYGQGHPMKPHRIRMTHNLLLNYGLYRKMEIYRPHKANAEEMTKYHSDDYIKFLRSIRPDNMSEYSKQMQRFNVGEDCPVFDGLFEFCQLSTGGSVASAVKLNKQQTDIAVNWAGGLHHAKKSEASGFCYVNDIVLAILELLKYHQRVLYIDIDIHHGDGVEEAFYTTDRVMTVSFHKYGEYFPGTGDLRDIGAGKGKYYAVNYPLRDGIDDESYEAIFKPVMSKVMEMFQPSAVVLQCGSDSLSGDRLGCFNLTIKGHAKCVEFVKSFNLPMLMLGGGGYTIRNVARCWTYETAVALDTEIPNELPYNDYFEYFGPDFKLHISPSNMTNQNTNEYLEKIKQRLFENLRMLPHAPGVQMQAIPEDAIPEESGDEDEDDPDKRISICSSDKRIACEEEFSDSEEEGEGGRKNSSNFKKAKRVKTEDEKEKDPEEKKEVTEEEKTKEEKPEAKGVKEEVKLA

Compound | IC50 [1] | IC50 (HCT116 cells) | EC50 [2]
Cc1cc(C)nc(NCc2ccc(C(=O)Nc3ccccc3N)cc2)n1 [Cpd 382, N-(2-Amino-phenyl)-4-[(4,6-dimethyl-pyrimidin-2-ylamino)-methyl]-benzamide] | 3000 nM | 1000 nM | 3000 nM
Cc1cc(C)nc(OCc2ccc(C(=O)Nc3ccccc3N)cc2)n1 [Cpd 384, N-(2-Amino-phenyl)-4-(4,6-dimethyl-pyrimidin-2-yloxymethyl)-benzamide] | 3000 nM | 2000 nM | 5000 nM
COc1cc(NCc2ccc(C(=O)Nc3ccccc3N)cc2)ncn1 [Cpd 385] | 3000 nM | 1000 nM | 2000 nM
CC(=O)c1cc2c(cc1NCc1ccc(C(=O)Nc3ccccc3N)cc1)OCO2 [Cpd 386, 4-[(6-Acetyl-benzo[1,3]dioxol-5-ylamino)-methyl]-N-(2-amino-phenyl)-benzamide] | 3000 nM | 1000 nM | 1000 nM
COc1ccc(NCc2ccc(C(=O)Nc3ccccc3N)cc2)c(OC)n1 [Cpd 388, N-(2-Amino-phenyl)-4-[(2,6-dimethoxy-pyridin-3-ylamino)-methyl]-benzamide] | 3000 nM | 400 nM | 5000 nM
Nc1ccccc1NC(=O)c1ccc(CNc2nc3ccccc3[nH]2)cc1 [Cpd 389] | 3000 nM | 200 nM | 1000 nM
COc1cc(NCc2ccc(C(=O)Nc3ccccc3N)cc2)nc(OC)n1 [Cpd 392, N-(2-Amino-phenyl)-4-[(2,6-dimethoxy-pyrimidin-4-ylamino)-methyl]-benzamide] | 4000 nM | 1000 nM | 1000 nM
COc1cc(CNc2ccc(C(=O)Nc3ccccc3N)cc2)cc(OC)c1 [Cpd 393, N-(2-Amino-phenyl)-4-(3,5-dimethoxy-benzylamino)-benzamide] | 4000 nM | 600 nM | 1000 nM
COc1cccc(SCc2ccc(C(=O)Nc3ccccc3N)cc2)c1 [Cpd 394] | 4000 nM | 2000 nM | 25000 nM
Nc1ccccc1NC(=O)c1ccc(CNc2ccc3c(c2)OCCO3)cc1 [Cpd 400, N-(2-Amino-phenyl)-4-[(2,3-dihydro-benzo[1,4]dioxin-6-ylamino)-methyl]-benzamide] | 8000 nM | 300 nM | 2000 nM
CC(=O)Nc1ccc(NCc2ccc(C(=O)Nc3ccccc3N)cc2)cc1 [Cpd 401, 4-[(4-Acetylamino-phenylamino)methyl]-N-(2-amino-phenyl)-benzamide] | 6000 nM | 300 nM | 2000 nM
Nc1ccccc1NC(=O)c1ccc(CNc2ccc(N3CCOCC3)cc2)cc1 [Cpd 402, N-(2-Amino-phenyl)-4-[(4-morpholin-4-yl-phenylamino)-methyl]-benzamide] | 14000 nM | 400 nM | 1000 nM
COc1cc(C#N)c(NCc2ccc(C(=O)Nc3ccccc3N)cc2)cc1OC [Cpd 404] | 3000 nM | 600 nM | 5000 nM
COc1ccc(NCc2ccc(C(=O)Nc3ccccc3N)cc2)cc1OCc1cccnc1 [Cpd 405] | 5000 nM | 1000 nM | 5000 nM
COc1ccc(CNc2ccc(C(=O)Nc3ccccc3N)cc2)cc1 [Cpd 414, N-(2-Amino-phenyl)-4-(4-methoxy-benzylamino)-benzamide] | 3000 nM | 1000 nM | 1000 nM
Nc1ccccc1NC(=O)c1ccc(CNc2ccc(F)cc2)cc1 [Cpd 415, N-(2-Amino-phenyl)-4-[(4-fluoro-phenylamino)-methyl]-benzamide] | 3000 nM | 1000 nM | 3000 nM
Nc1ccccc1NC(=O)c1ccc(NCc2cccc(F)c2)cc1 [Cpd 416, N-(2-Amino-phenyl)-4-(3-fluoro-benzylamino)-benzamide] | 3000 nM | 600 nM | 1000 nM
Nc1ccccc1NC(=O)c1ccc(CNc2cccc(F)c2)cc1 [Cpd 417, N-(2-Amino-phenyl)-4-[(3-fluoro-phenylamino)-methyl]-benzamide] | 3000 nM | 1000 nM | 1000 nM
Cc1cc(Cl)nc(NCc2ccc(C(=O)Nc3ccccc3N)cc2)n1 [Cpd 418, N-(2-Amino-phenyl)-4-[(4-chloro-6-methyl-pyrimidin-2-ylamino)-methyl]-benzamide] | 3000 nM | 900 nM | 2000 nM
Nc1ccccc1NC(=O)c1ccc(CNc2nc(Cl)cc(NCc3cccnc3)n2)cc1 [Cpd 420, N-(2-Amino-phenyl)-4-({4-chloro-6-[(pyridin-3-ylmethyl)-amino]-pyrimidin-2-ylamino]-methyl)-benzamide] | 3000 nM | 700 nM | 1000 nM
COc1ccc(NCc2ccc(C(=O)Nc3ccccc3N)cc2)cn1 [Cpd 421] | 4000 nM | 600 nM | 1000 nM
Nc1ccccc1NC(=O)c1ccc(NCc2ccc(OC(F)(F)F)cc2)cc1 [Cpd 426, N-(2-Amino-phenyl)-4-(4-trifluoromethoxy-benzylamino)-benzamide] | 2000 nM | 1000 nM | 10000 nM
COc1ccccc1NCc1ccc(C(=O)Nc2ccccc2N)cc1 [Cpd 429, N-(2-Amino-phenyl)-4-[(2-methoxy-phenylamino)-methyl]-benzamide] | 4000 nM | 900 nM | 1000 nM
COc1cccc(NCc2ccc(C(=O)Nc3ccccc3N)cc2)c1 [Cpd 430, N-(2-Amino-phenyl)-4-[(3-methoxy-phenylamino)-methyl]-benzamide] | 5000 nM | 700 nM | 1000 nM

The remaining lines, values ahead:

IC50 [1] | IC50 (HCT116 cells) | EC50 [2] | Compound
2000 nM | 500 nM | 2000 nM | Cc1cc(C)nc(NCc2ccc(C(=O)Nc3ccccc3N)cc2)c1 [Cpd 383, N-(2-Amino-phenyl)-4-[(4,6-dimethyl-pyridin-2-ylamino)-methyl]-benzamide]
2000 nM | 1000 nM | 1000 nM | COc1cc(Cl)cc(NCc2ccc(C(=O)Nc3ccccc3N)cc2)n1 [Cpd 387]
2000 nM | 800 nM | 5000 nM | COc1cccc(NCc2ccc(C(=O)Nc3ccccc3N)cc2)n1 [Cpd 390, N-(2-Amino-phenyl)-4-[(6-methoxy-pyridin-2-ylamino)-methyl]-benzamide]
1000 nM | 900 nM | 3000 nM | Nc1ccccc1NC(=O)c1ccc(CSc2cccc3cccnc23)cc1 [Cpd 391, N-(2-Amino-phenyl)-4-(quinolin-8-ylsulfanylmethyl)-benzamide]
2000 nM | 1000 nM | 5000 nM | COc1cc(OC)cc(OCc2ccc(C(=O)Nc3ccccc3N)cc2)c1 [Cpd 395, N-(2-Amino-phenyl)-4-(3,5-dimethoxy-phenoxymethyl)-benzamide]
2000 nM | 700 nM | 5000 nM | Nc1ccccc1NC(=O)c1ccc(COc2ccc3ccccc3n2)cc1 [Cpd 396, N-(2-Amino-phenyl)-4-(quinolin-2-yloxymethyl)-benzamide]
1000 nM | 600 nM | 4000 nM | COc1cc(NCc2ccc(C(=O)Nc3ccccc3N)cc2)cc(OC)c1 [Cpd 397, N-(2-Amino-phenyl)-4-[(3,5-dimethoxy-phenylamino)-methyl]-benzamide]
1000 nM | 200 nM | 1000 nM | COc1ccc(NCc2ccc(C(=O)Nc3ccccc3N)cc2)c(C)c1 [Cpd 403, N-(2-Amino-phenyl)-4-[(4-methoxy-2-methyl-phenylamino)-methyl]-benzamide]
900 nM | 100 nM | > 5000 nM | Cc1cc(C)c(NCc2ccc(C(=O)Nc3ccccc3N)cc2)c(C)c1 [Cpd 410, N-(2-Amino-phenyl)-4-[(2,4,6-trimethyl-phenylamino)-methyl]-benzamide]
2000 nM | 2000 nM | 3000 nM | Nc1ccccc1NC(=O)c1ccc(NCc2ccc(F)cc2)cc1 [Cpd 413, N-(2-Amino-phenyl)-4-(4-fluoro-benzylamino)-benzamide]
2000 nM | 1000 nM | 5000 nM | Nc1ccccc1NC(=O)c1ccc(CNc2nc(Cl)cc(Cl)n2)cc1 [Cpd 419, N-(2-Amino-phenyl)-4-[(4,6-dichloro-pyrimidin-2-ylamino)-methyl]-benzamide]
< 50 nM | 900 nM | 5000 nM | Nc1ccccc1NC(=O)c1ccc(CNc2ccc(OC(F)(F)F)cc2)cc1 [Cpd 422, N-(2-Amino-phenyl)-4-[(4-trifluoromethoxy-phenylamino)-methyl]-benzamide]
500 nM | 1000 nM | 3000 nM | Nc1ccccc1NC(=O)c1ccc(CNc2cccc(OC(F)(F)F)c2)cc1 [Cpd 423, N-(2-Amino-phenyl)-4-[(3-trifluoromethoxy-phenylamino)-methyl]-benzamide]
2000 nM | 600 nM | 5000 nM | Nc1ccccc1NC(=O)c1ccc(NCc2cccc(OC(F)(F)F)c2)cc1 [Cpd 425, N-(2-Amino-phenyl)-4-(3-trifluoromethoxy-benzylamino)-benzamide]
700 nM | 700 nM | 1000 nM | Nc1ccccc1NC(=O)c1ccc(CNc2ccc3c(c2)OCO3)cc1 [Cpd 428, N-(2-Amino-phenyl)-4-(benzo[1,3]dioxol-5-ylaminomethyl)-benzamide]
